Data reported in patent US7732622B2, “Naphthalene derivatives” (Glaxo Group Limited, priority 2001, dated 2010).

biological target: T1, human EP4 receptor (Homo sapiens, UniProt P35408); assay: Human EP4 Scintillation Proximity Assay (radioligand binding); settings: not given
T1 construct: expressed in transfected cells; host or cells: CHO cells infected with recombinant Semliki Forest Virus (SFV-1) particles; membranes prepared
Method: Quantification of radioligand binding by scintillation proximity assay (SPA) is a long-established principle. Briefly, the affinity of novel compounds for a receptor is assessed by the specific competition between known quantities of radiolabelled ligand and novel compound for that receptor. Increasing concentrations of novel compound reduce the amount of radiolabel that binds to the receptor. This gives rise to a diminishing scintillation signal from SPA beads coated with membranes that bear the receptor. The signal may be detected with a suitable scintillation counter and the data generated may be analysed with suitable curve-fitting software.
The human EP4 SPA assay (hereafter referred to as ‘the assay’) utilises membranes prepared from Chinese Hamster Ovary (CHO cells) infected with Semliki Forest Virus (SFV). Genetically engineered SFV-1 viral particles containing the genetic sequence of the human EP4 receptor were used to infect CHO cells resulting in expression of the receptor protein in cellular membranes. Cells washed free of media are homogenised in a pH-buffered medium containing peptidase inhibitors. A suitable buffer is of the following composition: 50 mM HEPES, 1 mM EDTA, 25 μg/ml bacitracin, 100 μM leupeptin, 1 mM PMSF, 2 μM Pepstatin A, pH adjusted to 7.4 with KOH. Following removal of cell debris by a low-speed centrifugation, a pellet of membranes is prepared by a high-speed (48000 g) centrifugation of the resulting supernatant. Membrane suspensions such as that described may be stored at −80° C. until used.
For assay, membranes expressing human EP4 receptors are diluted in a pH-buffered medium and mixed with SPA beads coated with a suitable substance to facilitate the adhesion of membranes to the beads. The concentrations of membrane protein and SPA beads chosen should result in SPA binding signal of at least 300 corrected counts per minute (CCPM) when tritiated radioligand at a concentration close to its Kd (affinity value) is combined with the mixture. Non-specific binding (nsb) may be determined by competition between the radiolabelled ligand and a saturating concentration of unlabelled ligand. In order to quantify the affinity of novel EP4 receptor ligands, compounds are diluted in a stepwise manner across the wells of a 96-well plate. Radioligand, novel compound, and unlabelled ligand are then added to a 96-well plate suitable for the measurement of SPA binding signals prior to the addition of bead/membrane mixture to initiate the binding reaction. Equilibrium may be achieved by incubation at room temperature for 120 minutes prior to scintillation counting. The data so generated may be analysed by means of a computerised curve-fitting routine in order to quantify the concentration of compound that displaces 50% of the specific radioligand binding (IC50). The affinity (pKi) of the novel compound may be calculated from the IC50 by application of the Cheng-Prusoff correction. Suitable reagents and protocols are: reaction buffer containing 50 mM HEPES, 10 mM MgCl2, pH adjusted to 7.4 with KOH; SPA beads coated with wheatgerm agglutinin; 1.25 nM [^3H]-prostaglandin E2 as radioligand; 10 μM prostaglandin E2 as unlabelled ligand; a three-fold dilution series of novel compound starting at 10 μM and ending at 0.3 nM is adequate.

T1 sequence (P35408 whole entry): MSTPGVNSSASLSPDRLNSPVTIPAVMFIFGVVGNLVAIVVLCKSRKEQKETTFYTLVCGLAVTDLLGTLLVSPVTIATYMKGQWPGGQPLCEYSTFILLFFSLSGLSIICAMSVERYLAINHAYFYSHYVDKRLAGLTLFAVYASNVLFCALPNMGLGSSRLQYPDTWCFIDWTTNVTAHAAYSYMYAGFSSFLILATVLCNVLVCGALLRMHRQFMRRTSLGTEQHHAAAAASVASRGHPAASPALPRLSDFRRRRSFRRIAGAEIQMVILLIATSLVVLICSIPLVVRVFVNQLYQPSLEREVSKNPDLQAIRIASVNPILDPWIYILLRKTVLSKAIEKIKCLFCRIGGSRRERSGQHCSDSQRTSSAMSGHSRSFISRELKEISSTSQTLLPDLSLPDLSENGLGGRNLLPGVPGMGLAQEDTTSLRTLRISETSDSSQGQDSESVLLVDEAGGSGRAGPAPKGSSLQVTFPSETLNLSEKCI

Ki, ≤ 1000 nM:
CCOc1c2c(c(OCC)c3ccccc13)C(=O)N(c1ccc(CC(=O)O)cc1)C2=O [Example 12, [4-(4,9-Diethoxy-1,3-dioxo-1,3-dihydro-2H-benzo[f]isoindol-2-yl)phenyl]acetic acid]
CC(C)Oc1c2c(c(OC(C)C)c3ccccc13)C(=O)N(c1ccc(CC(=O)O)cc1)C2 [Example 4, [4-(4,9-Di-isopropoxy-1-oxo-1,3-dihydro-2H-benzo[f]isoindol-2-yl)phenyl]acetic acid]
CCCOc1c2c(c(OCCC)c3ccccc13)C(=O)N(c1ccc(CC(=O)O)cc1)C2 [Example 5, [4-(4,9-Dipropoxy-1-oxo-1,3-dihydro-2H-benzo[f]isoindol-2-yl)phenyl]acetic acid]

same assay, conditions: SPA, membranes of CHO cells expressing human EP4 receptor, 1.25 nM [3H]-prostaglandin E2 as radioligand; pKi from IC50 by Cheng-Prusoff correction; read-out: pKi at EP4 receptors (converted)

Ki, ≤ 1000 nM:
CCOc1c2c(c(OC(C)C)c3ccccc13)C(=O)N(c1ccc(CC(=O)O)cc1)C2=O [Example 17, [4-(4-Ethoxy-9-isopropoxy-1,3-dioxo-1,3-dihydro-2H-benzo[f]isoindol-2-yl)phenyl]acetic acid]
CC(C)Oc1c2c(c(OC(C)C)c3ccccc13)C(=O)N(c1ccc(CC(=O)O)cc1)C2=O [Example 13, [4-(4,9-Di-isopropoxy-1,3-dioxo-1,3-dihydro-2H-benzo[f]isoindol-2-yl)phenyl]acetic acid]
COc1c2c(c(OC)c3ccccc13)C(=O)N(c1ccc(CC(=O)O)cc1)C2 [Example 1, [4-(4,9-Dimethoxy-1-oxo-1,3-dihydro-2H-benzo[f]isoindol-2-yl)phenyl]acetic acid]
CCCOc1c2c(c(OCCC)c3ccccc13)C(=O)N(c1ccc(CC(=O)O)cc1)C2=O [Example 14, [4-(4,9-Dipropoxy-1,3-dioxo-1,3-dihydro-2H-benzo[f]isoindol-2-yl)phenyl]acetic acid]
